According to publication PMC7840603, “Local Stabilization of Hypoxia-Inducible Factor-1α Controls Intestinal Inflammation via Enhanced Gut Barrier Function and Immune Regulation” (Frontiers in Immunology, 2021):

How the values were obtained:
Test in all cases: prolyl hydroxylation assay of HIF-1α peptide, VBC binding by fluorescence polarization
Format in all cases: biochemical
HIF-PHD3 = target: T1, HIF-PHD3 (Homo sapiens, UniProt Q9H6Z9)
T1 construct: gene EGLN3

HIF-PHD2 = target: T2, HIF-PHD2 (Homo sapiens, UniProt Q9GZT9)
T2 construct: gene EGLN1
T2 sequence (Q9GZT9 2-426): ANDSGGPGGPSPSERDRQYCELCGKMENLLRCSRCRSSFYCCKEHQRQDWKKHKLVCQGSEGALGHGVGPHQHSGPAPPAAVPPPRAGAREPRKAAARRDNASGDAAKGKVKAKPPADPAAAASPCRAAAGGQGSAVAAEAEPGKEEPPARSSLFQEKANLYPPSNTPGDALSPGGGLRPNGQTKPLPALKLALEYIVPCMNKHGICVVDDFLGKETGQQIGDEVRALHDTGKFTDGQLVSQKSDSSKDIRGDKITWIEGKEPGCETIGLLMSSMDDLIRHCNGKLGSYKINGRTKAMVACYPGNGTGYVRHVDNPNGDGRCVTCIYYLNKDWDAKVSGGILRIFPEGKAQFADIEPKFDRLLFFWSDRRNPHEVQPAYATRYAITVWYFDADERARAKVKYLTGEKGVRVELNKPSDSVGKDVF

HIF-PHD1 = target: T3, HIF-PHD1 (Homo sapiens, UniProt Q96KS0)
T3 construct: gene EGLN2
T3 sequence (Q96KS0 whole entry): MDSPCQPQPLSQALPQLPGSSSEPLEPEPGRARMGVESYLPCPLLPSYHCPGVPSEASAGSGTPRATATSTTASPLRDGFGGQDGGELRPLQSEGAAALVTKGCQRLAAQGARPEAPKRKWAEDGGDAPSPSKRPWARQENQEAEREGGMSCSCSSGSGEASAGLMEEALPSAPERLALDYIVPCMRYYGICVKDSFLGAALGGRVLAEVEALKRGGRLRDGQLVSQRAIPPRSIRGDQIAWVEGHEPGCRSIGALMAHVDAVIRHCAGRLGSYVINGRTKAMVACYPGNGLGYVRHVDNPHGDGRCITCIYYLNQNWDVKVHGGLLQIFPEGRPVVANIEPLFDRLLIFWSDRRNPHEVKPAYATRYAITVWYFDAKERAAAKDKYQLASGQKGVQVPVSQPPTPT

T1 sequence (Q9H6Z9 whole entry): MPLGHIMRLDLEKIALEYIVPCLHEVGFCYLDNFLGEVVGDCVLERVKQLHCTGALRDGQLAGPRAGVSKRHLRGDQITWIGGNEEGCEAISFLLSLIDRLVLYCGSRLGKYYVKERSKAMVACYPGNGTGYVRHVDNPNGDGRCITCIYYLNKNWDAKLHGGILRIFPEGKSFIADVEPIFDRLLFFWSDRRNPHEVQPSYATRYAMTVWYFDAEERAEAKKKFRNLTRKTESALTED

CG-598
IC50 (HIF-PHD3): 80 nM | IC50 (HIF-PHD2): 20 nM | IC50 (HIF-PHD1): 30 nM
